Measurements published in paper PMC3894197, “Penam Sulfones and β-Lactamase Inhibition: SA2-13 and the Importance of the C2 Side Chain Length and Composition” (PLoS ONE, 2014).

Experiments:
[1] = tested on: E. coli ATCC 35218 containing TEM-1; assay: Antimicrobial disc assay; type: cell-based, Escherichia coli; conditions: 10 µg ampicillin and 10 µg inhibitor; disc and ampicillin alone 6 mm
Description: (§1) In brief, paper discs (6 mm diameter) were soaked with 10 µg inhibitor and 10 µg of ampicillin or cephalothin. Discs were placed on Mueller-Hinton (M-H) agar plates plated with 10^4–10^5 CFUs of Escherichia coli DH10B harboring SHV-1 or PDC-3 or E. coli ATCC 35218 containing TEM-1. Measured zone clearing diameters were used to determine susceptibility.
(§2) Supplementary file pone.0085892.s003.docx: Table S1 Antimicrobial disc assays. These assays were performed with 10 µg ampicillin and 10 µg inhibitor. The size of the disc and the ampicillin zone size alone is 6 mm. (DOCX) Click here for additional data file.

[2] = tested on: E. coli DH10B PDC-3; assay: Antimicrobial disc assay; type: cell-based, Escherichia coli; conditions: for Disc Assay Zone E. coli DH10B PDC-3: 10 µg ampicillin and 10 µg inhibitor, disc and ampicillin alone 6 mm
Description: as §1, §2

[3] = tested on: E. coli DH10B SHV-1; assay: Antimicrobial disc assay; type: cell-based, Escherichia coli; conditions: for Disc Assay Zone E. coli DH10B SHV-1: 10 µg ampicillin and 10 µg inhibitor, disc and ampicillin alone 6 mm
Description: as §1, §2

[4] = target: T1, SHV-1 (Klebsiella pneumoniae, UniProt P0AD64); assay: Partition ratio (turnover number, tn); type: biochemical; conditions: SHV-1, 24 hour incubation, loss of >90% nitrocefin hydrolysis
T1 construct: made in house
Description: The partition ratio (turnover number, t n = k cat/k inact) or the partitioning of the initial enzyme-inhibitor complex between hydrolysis and enzyme inactivation was measured by incubating fixed enzyme concentrations with increasing amounts of inhibitor over a 24 hour period in a total volume of 100 µL as described. After 24 hours, a 20 µL aliquot of the incubation mix was removed and the steady-state hydrolysis of nitrocefin was measured and compared to an uninhibited control. The t n was determined as the inhibitor proportion that led to a loss of >90% of nitrocefin hydrolysis by the enzyme.

[5] = tested on: KPC-2; set-up: method as in PMID 22330909; conditions: the defined K i represents the K m used in Ke et al.; cited from earlier work
[6] = target: T2, wt SHV-1 (Klebsiella pneumoniae, UniProt P0AD64); assay: biochemical; type: biochemical
T2 construct: made in house
Description: (§3) Measurements were performed using glass cuvettes with 1 mL final volume in 1 mM phosphate-buffered saline (PBS) at pH 7.4 as previously described.

[7] = target: T1, SHV-1; assay: IC50 by nitrocefin hydrolysis after pre-incubation of enzyme and inhibitor; type: biochemical
Description: as §3

[8] = target: T1, SHV-1; assay: Inactivation kinetics (kinact, KI, kinact/KI) with nitrocefin; type: biochemical
Description: kinact (the first-order rate constant of inactivation) was determined by monitoring the inactivation of the enzyme by increasing concentrations of inhibitor over a time course using 21 nM of enzyme and 100 µM of nitrocefin according to a previously published method. The k obs determined using Origin (OriginLab Corporation) to plot the reciprocal of the ordinate of the intersection of the straight lines obtained from the initial velocity of inhibition, v o, and the final velocity of inhibition, vf. Each k obs was plotted against the inhibitor concentration [I] and fit to equation 2 to calculate k inact and k inact/K I. [drawing 2] (2)

[9] = target: T1, SHV-1; assay: Reactivation of β-lactamase (k obs react) after inhibitor/enzyme incubation; type: biochemical; conditions: SHV-1, 90:1 inhibitor:enzyme, 30 min incubation
Description: Then, unbound inhibitor was washed out with a Macro Spin Column G10 (The Nest Group). A competition assay was performed with 100 µM of nitrocefin and a 5 µL aliquot of the incubated mixture at three different time points (5, 30, and 1440 min) to determine the reactivation of the enzyme. Tazobactam kinetic profiles are included for comparison. EnzFitter™ (Biosoft) and Microsoft Excel were used to analyze the data.

[10] = target: T3, SHV K234R (Klebsiella pneumoniae, UniProt P0AD64, K230R); assay: biochemical; type: biochemical
T3 construct: GST (N, cleaved yes); made in house; host or cells: Origami2 (DE3) E. coli
Description: as §3

[11] = target: T1, SHV-1; conditions: cited from earlier work
[12] = target: T3, SHV K234R; assay: Circular dichroism thermal denaturation; conditions: CD at 208 nm, apo-K234R 48.2°C
Description: (§4) Circular dichroism (CD) was carried out on the SHV-1 and the SHV K234R proteins with and without SA2-13 and this is presented in Figure S1. In short, CD was performed on a JASCO J-815 spectrometer with a Peltier-effect temperature controller (GE Healthcare) as previously described. Quartz cells with a 0.1 cm pathlength were used for experiments (Hellma). Thermal denaturation was performed from 22–72°C with a heating rate of 2°C/min and raw data was corrected for the fraction of denatured protein (f u). The collected data at 208 nm was utilized to calculate a melting temperature (T m).

[13] = target: T1, SHV-1; assay: Circular dichroism thermal denaturation; conditions: CD at 208 nm, apo-SHV-1 54.2°C
Description: as §4

T1 sequence (P0AD64 22-286): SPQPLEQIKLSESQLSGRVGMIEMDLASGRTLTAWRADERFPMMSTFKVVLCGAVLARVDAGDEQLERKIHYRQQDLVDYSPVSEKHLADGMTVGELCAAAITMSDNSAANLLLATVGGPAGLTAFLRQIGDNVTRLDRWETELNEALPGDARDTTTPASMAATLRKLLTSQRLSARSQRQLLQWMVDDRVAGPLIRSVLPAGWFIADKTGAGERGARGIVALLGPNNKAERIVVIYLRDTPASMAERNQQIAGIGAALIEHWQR
T2 sequence (P0AD64 22-286): as above
T3 sequence (P0AD64 22-286 K230R): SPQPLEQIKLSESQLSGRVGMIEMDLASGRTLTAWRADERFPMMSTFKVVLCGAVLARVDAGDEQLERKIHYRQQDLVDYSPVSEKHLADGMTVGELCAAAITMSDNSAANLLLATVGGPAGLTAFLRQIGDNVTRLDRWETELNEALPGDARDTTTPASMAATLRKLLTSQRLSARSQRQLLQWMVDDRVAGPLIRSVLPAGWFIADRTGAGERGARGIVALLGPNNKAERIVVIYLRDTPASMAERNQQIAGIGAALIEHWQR

## CC1(C(=O)OCC(N)=O)C(C(=O)O)N2C(=O)CC2S1(=O)=O (centres unmarked) [PSR-3-226]
[1]
  Disc Assay Zone E. coli ATCC 35218 (TEM-1): 12 mm
[2]
  Disc Assay Zone E. coli DH10B PDC-3: 12 mm
[2]; disc assay
  microbial activity versus AmpC (PDC-3) expressed in E. coli DH10B: had microbial activity
[3]
  Disc Assay Zone E. coli DH10B SHV-1: 6 mm
[4]
  t n 24h: >1500
[5]
  K m against KPC-2: 3.8 ± 0.4 µM
[6]
  Ki: 2600 ± 300 nM
[7]
  IC50: 370 ± 30 nM
[8]
  Ki: 1000 ± 100 nM
[8]; SHV-1
  k inact/K I: 60000 ± 10000 M⁻¹ s⁻¹

## CC1(COC(=O)CCC(=O)O)C(C(=O)O)N2C(=O)CC2S1(=O)=O (centres unmarked) [PSR-4-155]
[9]
  k obs react 30 min: >0.2 s⁻¹
[1]
  Disc Assay Zone E. coli ATCC 35218 (TEM-1): 13 mm
[2]
  Disc Assay Zone E. coli DH10B PDC-3: 6 mm
[3]
  Disc Assay Zone E. coli DH10B SHV-1: 6 mm
[4]
  t n 24h: >1500
[6]
  Ki: 2700 ± 200 nM
[6]; SHV-1
  Ki fold higher compared to PSR-4-157: ~2 fold
[7]
  IC50: 440 ± 40 nM
[8]
  Ki: 2100 ± 200 nM
[8]; SHV-1
  KI fold higher compared to PSR-4-157: ~2 fold
  k inact/K I: 50000 ± 10000 M⁻¹ s⁻¹
  kinact/KI fold lower compared to PSR-4-157: 2 fold

## CC1(COC(=O)CCCCC(=O)O)C(C(=O)O)N2C(=O)CC2S1(=O)=O (centres unmarked) [PSR-4-157]
[1]
  Disc Assay Zone E. coli ATCC 35218 (TEM-1): 11 mm
[2]
  Disc Assay Zone E. coli DH10B PDC-3: 6 mm
[3]
  Disc Assay Zone E. coli DH10B SHV-1: 6 mm
[4]
  t n 24h: >1500
[6]
  Ki: 1700 ± 100 nM
[7]
  IC50: 160 ± 10 nM
[7]; SHV-1
  fold higher IC50 compared to SA2-13: 2 fold
[8]
  Ki: 1000 ± 200 nM
[8]; SHV-1
  k inact/K I: 100000 ± 20000 M⁻¹ s⁻¹

## C[C@]1(COC(=O)CCCC(=O)O)[C@H](C(=O)O)N2C(=O)C[C@H]2S1(=O)=O [SA2-13]
[9]
  k obs react 30 min: 0.004 ± 0.001 s⁻¹
[1]
  Disc Assay Zone E. coli ATCC 35218 (TEM-1): 14 mm
[2]
  Disc Assay Zone E. coli DH10B PDC-3: 6 mm
[3]
  Disc Assay Zone E. coli DH10B SHV-1: 6 mm
[4]
  t n 24h: 120
[10]
  Ki: 2100 ± 200 nM
[10]; K234R vs wt SHV-1
  fold increase of K i for K234R SHV relative to wt SHV-1: 2 fold
[6]
  Ki: 1700 ± 100 nM
[7]
  IC50: 81 ± 7 nM
[11]
  k react fold decrease compared to tazobactam: about 10 fold
[12]
  melting temperature Tm of SHV K234R with inhibitor: unaffected
[12]; listed as MN-2-261
  melting temperature Tm of SHV K234R with inhibitor: 48.7 °C
[13]
  melting temperature Tm of SHV-1 with inhibitor: unaffected
[13]; listed as MN-2-261
  melting temperature Tm of SHV-1 with inhibitor: 54.5 °C
[8]
  Ki: 190 ± 10 nM
[8]; SHV-1
  k inact/K I: 370000 ± 60000 M⁻¹ s⁻¹

## C[C@]1(Cn2ccnn2)[C@H](C(=O)O)N2C(=O)C[C@H]2S1(=O)=O [tazobactam, reference compound]
[9]
  k obs react 30 min: 0.040 ± 0.001 s⁻¹
[1]
  Disc Assay Zone E. coli ATCC 35218 (TEM-1): 21 mm
[2]
  Disc Assay Zone E. coli DH10B PDC-3: 14 mm
[3]
  Disc Assay Zone E. coli DH10B SHV-1: 6 mm
[3]; DH10B E. coli, high SHV-1 expression
  inhibition of SHV-1 expressing cells: Inhibition was not observed
[4]
  t n 24h: 5
